{"source": "patent US7622551B2", "about": "“Leukocyte stimulating peptides” (POSCO, priority 2004, dated 2009)", "key": {"[1]": {"system": "human monocytes", "assay": "Chemotaxis assay (modified Boyden chamber), monocytes", "format": "cell-based", "conditions": "FIG. 6B; control peptide at concentrations less than 10 μM", "method": "FIGS. 6A and 6B show chemotactic effect of peptides. Assays were performed using a modified Boyden chamber assay, as described in the Examples. Isolated human neutrophils (A) or monocytes (B) (1×10^6 cells/ml in serum free RPMI) were added to the upper wells of a 96-well chemotaxis chamber and migration across a 3 μm pore size (5 μm for monocytes) polycarbonate membrane was assessed after 2 hrs incubation at 37° C. The numbers of migrated cells were determined by counting them in a high power field (400×). Results are presented as means±S.E. of three independent experiments each performed in duplicate.\nChemotaxis assays were performed using multiwell chambers (Neuroprobe Inc., Gaithersburg, Md.) (Bae et al. Blood. 2001. 97: 2854-2862). Briefly, prepared human monocytes were suspended in RPMI at a concentration of 1×10^6 cells/ml, and 25 μl of the suspension was then placed onto the upper well of a chamber separated by a 5 μm polyhydrocarbon filter (3 μm pores size not polyvinylpyrrolidone coated, as is needed for neutrophils) from peptides or N-formyl-methionyl-leucyl-phenylalanine (fMLF) in the lower well. After incubation for 2 hours (90 minutes for neutrophils) at 37° C., non-migrated cells were removed by scraping, and cells that migrated across the filter were dehydrated, fixed, and stained with hematoxylin (Sigma, St. Louis, Mo.). Stained cells were counted in five randomly chosen high power fields (HPF) (400×) (Bae et al. Blood. 2001. 97: 2854-2862)."}, "[2]": {"molecular_target": "T1, FPRL1 (Homo sapiens, UniProt P25090)", "T1 construct": "expressed in transfected cells; host or cells: RBL-2H3", "T1 sequence (P25090 1-351)": "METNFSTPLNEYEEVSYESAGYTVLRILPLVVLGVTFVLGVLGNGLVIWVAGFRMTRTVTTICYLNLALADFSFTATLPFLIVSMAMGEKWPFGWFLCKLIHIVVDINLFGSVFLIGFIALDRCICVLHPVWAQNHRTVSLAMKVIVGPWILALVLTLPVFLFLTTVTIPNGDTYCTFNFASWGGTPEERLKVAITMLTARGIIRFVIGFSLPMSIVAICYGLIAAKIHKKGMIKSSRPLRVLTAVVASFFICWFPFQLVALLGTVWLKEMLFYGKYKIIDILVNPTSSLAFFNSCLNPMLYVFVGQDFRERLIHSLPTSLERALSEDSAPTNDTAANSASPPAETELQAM", "assay": "[Ca2+]i increase in FPRL1-expressing RBL-2H3 cells", "format": "cell-based", "conditions": "10 μM of each peptide (FIG. 7)", "method": "(§1) U937 (human histiocytic lymphoma cells), HL60 (human promyelocytic leukemia cells), Raw 264.7 (mouse macrophage), Jurkat (human acute T cell leukemia), PC12 (rat adrenal pheochromocytoma cells), 3Y1 (Rat embryonic fibroblasts), 3T3L1 (preadipocytes), and NCI-H292 (human mucoepidermoid pulmonary carcinoma cells) were obtained from the American Type Culture Collection (Rockville, Md.) and maintained as recommended. FPR- or FPRL1 expressing RBL-2H3 cells were cultured as described previously (He et al. J. Immunol. 2000. 165: 4598-4605). Cells were maintained at about 1×10^6 cells/ml under standard incubator conditions (humidified atmosphere, 95% air, 5% CO2, at 37° C.). HL60 cells were induced to differentiate into the granulocyte phenotype by adding dimethylsulfoxide (DMSO) (final concentration 1.25%, v/v) for 4 days to the culture medium, as described previously (Itoh et al. Blood. 1998. 92: 1432-1441).\n(§2) The level of [Ca^2+]i was determined using Grynkiewicz's method using fura-2/AM (Grynkiewicz et al. J. Biol. Chem. 1985. 260: 3440-3550). Briefly, prepared cells were incubated with 3 μM of fura-2/AM at 37° C. for 50 min in serum-free RPMI 1640 medium under continuous stirring. 2×10^6 cells were aliquoted for each assay in Ca^2+ free Locke's solution (154 mM NaCl, 5.6 mM KCl, 1.2 mM MgCl2, 5 mM HEPES, pH 7.3, 10 mM glucose, and 0.2 mM EGTA). Fluorescence changes were measured at the dual excitation wavelength of 340 nm and 380 nm, and the calculated fluorescence ratio was translated into [Ca^2+]i."}, "[3]": {"system": "Jurkat cells", "assay": "[Ca2+]i rise in Jurkat cells", "format": "cell-based, human", "conditions": "10 μM (FIG. 5)", "method": "as §1\nas §2, with “2×10^6 cells were aliquoted for each assay in Ca^2+ free Locke's solution (154 mM NaCl, 5.6 mM KCl, 1.2 mM MgCl2, 5 mM HEPES, pH 7.3, 10 mM glucose, and 0.2 mM EGTA).” left out"}, "[4]": {"system": "neutrophils", "assay": "[Ca2+]i rise in neutrophils", "format": "cell-based, human", "conditions": "10 μM (FIG. 5)", "method": "(§3) Peripheral blood leukocyte concentrates were donated by the Ulsan Red Cross Blood Center (Ulsan, Korea). PBMCs were separated on a Histopaque-1077 gradient. After two washings with HBSS without Ca^2+ and Mg^2+, the PBMCs were suspended in 10% FBS containing RPMI and incubated for 60 min at 37° C. to let the monocytes attach to the culture dish. Cells were washed 5 times with warmed RPMI medium to remove lymphocytes, and then the attached monocytes were collected, as described previously (Bae et al. J. Leukoc. Biol. 1999. 65: 241-248). Human neutrophils were isolated according to standard procedures; i.e., dextran sedimentation, hypotonic lysis of erythrocytes, and using a medium lymphocyte separation gradient, as described previously (Seo et al. J. Immunol. 1997. 158: 1895-1901). Isolated human leukocytes were then used promptly.\nas §2, with “2×10^6 cells were aliquoted for each assay in Ca^2+ free Locke's solution (154 mM NaCl, 5.6 mM KCl, 1.2 mM MgCl2, 5 mM HEPES, pH 7.3, 10 mM glucose, and 0.2 mM EGTA).” left out"}, "[5]": {"system": "HUVEC", "assay": "[Ca2+]i rise in HUVEC", "format": "cell-based", "conditions": "10 μM", "method": "as §2"}, "[6]": {"system": "Raw 264.7", "assay": "[Ca2+]i rise in Raw 264.7 cells", "format": "cell-based, mouse", "conditions": "Raw 264.7, 10 μM (FIG. 5)", "method": "as §1\nas §2, with “2×10^6 cells were aliquoted for each assay in Ca^2+ free Locke's solution (154 mM NaCl, 5.6 mM KCl, 1.2 mM MgCl2, 5 mM HEPES, pH 7.3, 10 mM glucose, and 0.2 mM EGTA).” left out"}, "[7]": {"system": "Monocytes", "assay": "[Ca2+]i rise in monocytes", "format": "cell-based, human", "conditions": "10 μM (FIG. 5)", "method": "as §3\nas §2, with “2×10^6 cells were aliquoted for each assay in Ca^2+ free Locke's solution (154 mM NaCl, 5.6 mM KCl, 1.2 mM MgCl2, 5 mM HEPES, pH 7.3, 10 mM glucose, and 0.2 mM EGTA).” left out"}, "[8]": {"system": "NCI-H292", "assay": "[Ca2+]i rise in NCI-H292 cells", "format": "cell-based, human", "conditions": "NCI-H292, 10 μM", "method": "as §1\nas §2, with “2×10^6 cells were aliquoted for each assay in Ca^2+ free Locke's solution (154 mM NaCl, 5.6 mM KCl, 1.2 mM MgCl2, 5 mM HEPES, pH 7.3, 10 mM glucose, and 0.2 mM EGTA).” left out"}, "[9]": {"system": "U937 cells", "assay": "[Ca2+]i rise in U937 cells", "format": "cell-based, human", "conditions": "10 μM (FIG. 5)", "method": "as §1\nas §2, with “2×10^6 cells were aliquoted for each assay in Ca^2+ free Locke's solution (154 mM NaCl, 5.6 mM KCl, 1.2 mM MgCl2, 5 mM HEPES, pH 7.3, 10 mM glucose, and 0.2 mM EGTA).” left out"}, "[10]": {"system": "PC12", "assay": "[Ca2+]i rise in PC12 cells", "format": "cell-based, rat", "conditions": "PC12, 10 μM", "method": "as §1\nas §2, with “2×10^6 cells were aliquoted for each assay in Ca^2+ free Locke's solution (154 mM NaCl, 5.6 mM KCl, 1.2 mM MgCl2, 5 mM HEPES, pH 7.3, 10 mM glucose, and 0.2 mM EGTA).” left out"}, "[11]": {"system": "3Y1", "assay": "[Ca2+]i rise in 3Y1 cells", "format": "cell-based, Rat", "conditions": "3Y1, 10 μM", "method": "as §1\nas §2, with “2×10^6 cells were aliquoted for each assay in Ca^2+ free Locke's solution (154 mM NaCl, 5.6 mM KCl, 1.2 mM MgCl2, 5 mM HEPES, pH 7.3, 10 mM glucose, and 0.2 mM EGTA).” left out"}}, "note": "Where no end group is shown, it is not given here.", "data": [{"substance": "RKYHVM-NH2 [Peptide P14]", "values": [{"measurement": "Cellular chemotaxis in human monocytes (in words)", "setting": "[1]", "value": "induced cellular chemotaxis"}, {"measurement": "[Ca^2+]i increase in FPRL1-expressing RBL-2H3 cells", "setting": "[2]", "value": "induced calcium increase"}]}, {"substance": "MKYYKM-NH2 [Peptide P21]", "values": [{"measurement": "Cellular chemotaxis in human monocytes (in words)", "setting": "[1]", "value": "induced cellular chemotaxis"}, {"measurement": "[Ca^2+]i increase in FPRL1-expressing RBL-2H3 cells", "setting": "[2]", "value": "induced calcium increase"}]}, {"substance": "MKYYYM-NH2 [Peptide P24]", "values": [{"measurement": "[Ca^2+]i rise", "setting": "[3]", "value": "not activated"}, {"measurement": "[Ca^2+]i rise", "setting": "[4]", "value": "resulted in a [Ca^2+]i rise"}, {"measurement": "[Ca^2+]i rise", "setting": "[5]", "value": "no response"}, {"measurement": "Cellular chemotaxis in human monocytes (in words)", "setting": "[1]", "value": "induced cellular chemotaxis"}, {"measurement": "[Ca^2+]i rise", "setting": "[6]", "value": "not activated"}, {"measurement": "[Ca^2+]i rise", "setting": "[7]", "value": "activated"}, {"measurement": "[Ca^2+]i rise", "setting": "[8]", "value": "no response"}, {"measurement": "[Ca^2+]i increase in FPRL1-expressing RBL-2H3 cells", "setting": "[2]", "value": "induced calcium increase"}, {"measurement": "[Ca^2+]i rise", "setting": "[9]", "value": "activated"}, {"measurement": "[Ca^2+]i rise", "setting": "[10]", "value": "no response"}, {"measurement": "[Ca^2+]i rise", "setting": "[11]", "value": "no response"}]}]}
